# Results: patent US20160030391A1, “METHODS AND COMPOSITIONS FOR IMPROVING COGNITIVE FUNCTION” (THE JOHNS HOPKINS UNIVERSITY, priority 2013, published 2016)
# Read-outs that look alike come from different tables or passages of the source.
# What was measured:
# aMCI subjects [1] = test: Benton Visual Retention Test; type: in vivo, human; settings: levetiracetam 125 mg twice a day for two weeks
# Text: Breaks are provided to the subject as needed.
# [2] = cited from earlier work
# [3] = test system: Age-Impaired (AI) Long-Evans rats; test: Morris Water Maze retention trial, levetiracetam in aged-impaired rats; type: in vivo, rat
# Experimental: The MWM apparatus consists of a large, circular pool (diameter 1.83 m; height, 0.58 m) filled with water (27° C.) that is made opaque through the addition of non-toxic pigment or some other substance. In the typical “hidden platform” version of the test, rats are trained to find a camouflaged white escape platform (height, 34.5 cm) that is positioned in the center of one quadrant of the maze about 1.0 cm below the water surface. This platform can be retracted to the bottom of the tank or raised to its normal position from outside the maze during behavioral testing. The location of the platform remains constant from trial to trial. Because there are no local cues that mark the position of the platform, the rat's ability to locate it efficiently from any starting position at the perimeter of the pool depends on using information surrounding the maze. The maze is surrounded by black curtains to which white patterns are affixed to provide a configuration of spatial cues. A second platform (height 37.5 cm), with its surface painted black is elevated 2 cm above the water surface during cue training to control for factors unrelated to cognition. The behavior of a rat in the pool is recorded by a camera that is suspended 2.5 m above the center of the pool. The camera is connected to a video tracking system (HVS Image Advanced Tracker VP200) and a PC computer running HVS software developed by Richard Baker of HVS Image, Hampton, UK. The MWM protocol is optimized for sensitivity to the effects of aging on cognition and for measures of reliable individual differences within the aged population of out-bred Long-Evans rats (Gallagher et al. Behav. Neurosci. 107:618-626, (1993)). Rats receive three trials per day for 8 consecutive days, using a 60 sec inter-trial interval. On each training trial, the rat is released into the maze from one of four equally spaced starting positions around the perimeter of the pool. […] At the completion of the protocol using the hidden platform, rats are assessed for cue learning using the visible platform. […]
# aMCI subjects [4] = test: explicit 3-alternative forced choice task; type: in vivo, human
# Text: See Folstein et al., J Psychiatric Res 12: 189-98, (1975); Robbins et al., Dementia 5: 266-81, (1994); Rey, L′examen clinique en psychologie, (1964); Kluger et al., J Geriatr Psychiatry Neurol 12:168-79, (1999); Marquis et al., 2002 and Masur et al., 1994. Also see Buchanan, R. W., Keefe, R. S. E., Umbricht, D., Green, M. F., Laughren, T., and Marder, S. R. (2011) The FDA-NIMH-MATRICS guidelines for clinical trial design of cognitive-enhancing drugs: what do we know 5 years later? Schizophr. Bull. 37, 1209-1217. Another example of a cognitive test in humans is the explicit 3-alternative forced choice task. In this test, subjects are presented with color photographs of common objects consisting of a mix of three types of image pairs: similar pairs, identical pairs and unrelated foils. The second of the pair of similar objects is referred to as the “lure”. These image pairs are fully randomized and presented individually as a series of images. Subjects are instructed to make a judgment as to whether the objects seen are new, old or similar. A “similar” response to the presentation of a lure stimulus indicates successful memory retrieval by the subject.
# The activity of the subject's medial temporal lobe is measured by functional MRI during the subject's participation in an explicit 3-alternative forced choice task, where participants view novel, repeated and similar (“lure”) stimuli. The Psychophysics Toolbox extensions in Matlab 7.0 (The MathWorks, Natick, Mass.) is used for stimulus presentation and behavioral data collection. Stimuli are color photographs of common objects. Each participant undergoes a series of testing runs during the functional imaging sessions, each run consisting of a mix of three types of image pairs: similar pairs, identical pairs and unrelated foils. These image pairs are fully randomized throughout the run and presented individually as a series of images (see FIG. 10A). Participants are instructed to make a judgment as to whether each object seen is new, old or similar. […]
smiles,measurement,setting,value
"CC[C@@H](C(N)=O)N1CCCC1=O [levetiracetam, (2S)-2-(2-oxopyrrolidin-1-yl)butanamide]",performance in Benton Visual Retention Test,aMCI subjects [1],fail to rescue performance
same,Plasma half-life,[2]; expected in elderly due to decreased renal function,9 to 10 h
same,time of peak plasma concentrations,[2]; following oral administration,about 1 hour
same,time to steady state,[2]; multiple twice-daily dosing,2 days
same,Plasma half-life,[2]; oral administration,approximately 7±1 hour
same,absorption after oral administration,[2]; oral administration,rapidly and almost completely absorbed
same,effect of food on bioavailability,[2]; oral administration,not affected by food
same,time spent in the target quadrant (performance vs vehicle),"[3]; levetiracetam 5 mg/kg/day i.p., retention trial 24 hours after two training days",did not significantly improve
same,time spent in the target annulus,"[3]; levetiracetam 10 mg/kg/day i.p., retention trial",effectiveness of the 10 mg/kg/day levetiracetam treatment was also seen
same,"time spent in the target quadrant, percentage of total swimming time","[3]; levetiracetam 10 mg/kg/day i.p., retention trial 24 hours after two training days",approximately 35%
same,performance in the explicit 3-alternative forced choice task,aMCI subjects [4]; levetiracetam 62.5 mg BID for two weeks,improves significantly
same,performance in the explicit 3-alternative forced choice task,aMCI subjects [4]; levetiracetam 125 mg twice a day for two weeks vs placebo,improves significantly
same,performance in the explicit 3-alternative forced choice task,aMCI subjects [4]; levetiracetam 250 mg BID for two weeks,does not significantly improve
